Our source for the EC50 values is US20250136606A1, “MODULATORS OF TRPML, THEIR COMPOSITIONS AND METHODS OF USE” (Caraway Therapeutics, Inc., priority 2021, published 2025).

What all share (assay type): cell-based
The target of one test is TRPML1 (Homo sapiens, UniProt Q9GZU1). Nature of the test: Fluorescent TRPML1 assay (Fluo4-AM calcium fluorescence in doxycycline-induced HEK-293 Trex cells). Summed up: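 HEK-293 Trex cells stably carrying human TRPML1 (surface-trafficking mutant) were induced overnight with 0.5 ug/mL doxycycline, loaded with 1 micromolar Fluo4-AM, and suspended in Ringer's with 10 mM calcium. Compounds at 20 micromolar to 6 nanomolar final, half-log steps, triplicate; fluorescence 480/540 nm gave percent activity versus controls and EC50 by non-linear regression.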

A further test concerns the target T1, TRPML2 (Homo sapiens, UniProt Q8IZK6).
T1 construct: expressed in transfected cells
T1 sequence (Q8IZK6 1-566): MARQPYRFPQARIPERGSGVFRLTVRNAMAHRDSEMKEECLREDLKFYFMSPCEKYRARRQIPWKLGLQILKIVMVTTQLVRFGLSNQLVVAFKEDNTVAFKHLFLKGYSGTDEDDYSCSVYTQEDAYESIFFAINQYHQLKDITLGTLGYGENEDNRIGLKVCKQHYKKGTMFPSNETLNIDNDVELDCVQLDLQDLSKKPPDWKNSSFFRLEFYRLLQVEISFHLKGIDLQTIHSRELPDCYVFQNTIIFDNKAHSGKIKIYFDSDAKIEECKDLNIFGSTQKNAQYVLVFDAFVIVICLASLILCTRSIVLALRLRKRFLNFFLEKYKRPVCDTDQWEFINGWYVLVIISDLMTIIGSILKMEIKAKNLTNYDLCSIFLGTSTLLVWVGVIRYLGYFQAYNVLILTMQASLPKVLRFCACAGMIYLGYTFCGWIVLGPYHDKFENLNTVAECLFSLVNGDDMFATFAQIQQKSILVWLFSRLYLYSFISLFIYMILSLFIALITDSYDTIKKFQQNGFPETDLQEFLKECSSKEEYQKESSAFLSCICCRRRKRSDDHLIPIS
Nature of the test: Fluorescent TRPML2 assay (performed as for TRPML1, substituting the TRPML2 subtype). Summed up:
(§1)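 Doxycycline-induced (0.5 ug/mL) HEK-293 Trex cells stably expressing surface-directed mutant channel were loaded with 1 micromolar Fluo4-AM, resuspended in Ringer's with 10 mM calcium and added to compound plates. Fluorescence (ex 480, em 540 nm) gave percent activity versus on-plate controls; EC50 by non-linear regression.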

The target of another test is T2, TRPML3 (Homo sapiens, UniProt Q8TDD5).
T2 construct: expressed in transfected cells
T2 sequence (Q8TDD5 1-553): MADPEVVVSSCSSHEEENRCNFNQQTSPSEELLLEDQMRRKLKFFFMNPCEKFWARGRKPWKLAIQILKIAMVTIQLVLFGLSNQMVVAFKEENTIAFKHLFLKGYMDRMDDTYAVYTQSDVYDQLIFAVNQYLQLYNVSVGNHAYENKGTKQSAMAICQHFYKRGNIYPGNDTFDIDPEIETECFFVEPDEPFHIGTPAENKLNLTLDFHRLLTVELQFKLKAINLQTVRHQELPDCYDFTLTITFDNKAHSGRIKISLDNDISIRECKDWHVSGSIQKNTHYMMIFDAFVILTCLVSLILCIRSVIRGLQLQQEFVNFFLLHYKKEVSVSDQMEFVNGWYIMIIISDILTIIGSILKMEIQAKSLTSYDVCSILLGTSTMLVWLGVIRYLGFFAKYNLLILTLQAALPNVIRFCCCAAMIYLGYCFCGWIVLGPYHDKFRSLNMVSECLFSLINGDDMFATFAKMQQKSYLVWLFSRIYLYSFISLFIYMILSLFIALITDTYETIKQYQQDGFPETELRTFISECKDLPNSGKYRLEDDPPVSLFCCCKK
Put plainly: Fluorescent TRPML3 assay (performed as for TRPML1, substituting the TRPML3 subtype). Summed up:
as §1

Usually EC50 stands for the midpoint of the concentration-response curve.

Read-outs that look alike come from different tables or passages of the source.

Sequence of TRPML1 (Q9GZU1 whole entry L15A/L16A/L577A/L578A, form open): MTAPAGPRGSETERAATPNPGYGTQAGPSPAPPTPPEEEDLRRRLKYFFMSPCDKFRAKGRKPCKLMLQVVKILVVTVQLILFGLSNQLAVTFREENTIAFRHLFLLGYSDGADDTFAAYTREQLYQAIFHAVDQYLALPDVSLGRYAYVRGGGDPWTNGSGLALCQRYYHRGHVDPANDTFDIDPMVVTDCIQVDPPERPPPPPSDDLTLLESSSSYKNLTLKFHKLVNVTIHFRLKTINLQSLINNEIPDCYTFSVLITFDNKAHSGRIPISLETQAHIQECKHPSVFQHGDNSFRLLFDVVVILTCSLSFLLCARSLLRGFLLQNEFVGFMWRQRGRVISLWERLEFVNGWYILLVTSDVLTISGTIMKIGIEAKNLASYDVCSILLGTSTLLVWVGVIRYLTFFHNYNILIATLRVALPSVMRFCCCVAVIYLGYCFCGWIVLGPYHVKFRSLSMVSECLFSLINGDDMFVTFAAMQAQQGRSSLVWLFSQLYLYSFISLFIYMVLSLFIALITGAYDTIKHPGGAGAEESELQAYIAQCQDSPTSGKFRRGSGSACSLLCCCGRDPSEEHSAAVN

On to `Cc1cn(-c2cc(F)ccn2)c2ncnc(N3CCN(C(=O)OC(C)(C)C)C[C@@H]3C)c12` [Compound 681, tert-butyl (S)-4-(7-(4-fluoropyridin-2-yl)-5-methyl-7H-pyrrolo[2,3-d]pyrimidin-4-yl)-3-methylpiperazine-1-carboxylate], for which the EC50 at TRPML1, at TRPML2 and on TRPML3 was under 100 nM each time.

`C[C@@H]1CN(c2ncnc3c2c(N(C)C)cn3-c2cccc(Cl)c2)CCN1C(=O)OC(C)(C)C` [Compound 430, tert-butyl (R)-4-(7-(3-chlorophenyl)-5-(dimethylamino)-7H-pyrrolo[2,3-d]pyrimidin-4-yl)-2-methylpiperazine-1-carboxylate]: the results for the EC50 on TRPML1 (fluorescent calcium assay), at TRPML2 (fluorescent calcium assay) and at TRPML3 (fluorescent calcium assay) were under 100 nM, 100 to 500 nM and under 100 nM, respectively.

For the molecule `C[C@@H]1CN(c2ncnc3c2c(-c2ccncc2)cn3-c2cc(F)cc(Cl)c2)CCN1C(=O)OC(C)(C)C` [Compound 238, tert-butyl (R)-4-(7-(3-chloro-5-fluorophenyl)-5-(pyridin-4-yl)-7H-pyrrolo[2,3-d]pyrimidin-4-yl)-2-methylpiperazine-1-carboxylate], the EC50 at TRPML1 (fluorescent calcium assay) was under 100 nM; at TRPML2 (fluorescent calcium assay), 500 to 2000 nM; at TRPML3 (fluorescent calcium assay), 100 to 500 nM.

Turning to `C[C@H]1CN(C(=O)OC(C)(C)C)CCN1c1ncnc2c1c(C1CC1)cn2-c1ccc(Cl)cc1` [Compound 114, tert-butyl (S)-4-(7-(4-chlorophenyl)-5-cyclopropyl-7H-pyrrolo[2,3-d]pyrimidin-4-yl)-3-methylpiperazine-1-carboxylate], the EC50 at TRPML1 (fluorescent calcium assay), on TRPML2 (fluorescent calcium assay) and at TRPML3 (fluorescent calcium assay) was under 100 nM each time.

As to `C[C@H]1CN(C(=O)OC(C)(C)C)CCN1c1ncnc2c1c(C1CC1)cn2-c1cccc(F)c1` [Compound 127, tert-butyl (S)-4-(5-cyclopropyl-7-(3-fluorophenyl)-7H-pyrrolo[2,3-d]pyrimidin-4-yl)-3-methylpiperazine-1-carboxylate], the EC50 at TRPML1 (fluorescent calcium assay) was under 100 nM; on TRPML2 (fluorescent calcium assay), 100 to 500 nM; on TRPML3 (fluorescent calcium assay), under 100 nM.

In the case of `C[C@@H]1CN(c2ncnc3c2c(C2CC2)cn3-c2cccc(Cl)c2F)CCN1C(=O)OC(C)(C)C` [Compound 220, tert-butyl (R)-4-(7-(3-chloro-2-fluorophenyl)-5-cyclopropyl-7H-pyrrolo[2,3-d]pyrimidin-4-yl)-2-methylpiperazine-1-carboxylate], the values for the EC50 at TRPML1 (fluorescent calcium assay), on TRPML2 (fluorescent calcium assay) and at TRPML3 (fluorescent calcium assay) were under 100 nM, 100 to 500 nM and under 100 nM, respectively.

For the molecule `C[C@H]1CN(C(=O)OC(C)(C)C)CCN1c1ncnc2c1c(-c1ccccc1F)cn2-c1ccccn1` [Compound 231, tert-butyl (S)-4-(5-(2-fluorophenyl)-7-(pyridin-2-yl)-7H-pyrrolo[2,3-d]pyrimidin-4-yl)-3-methylpiperazine-1-carboxylate], the EC50 at TRPML1 (fluorescent calcium assay) was under 100 nM; on TRPML2 (fluorescent calcium assay), 100 to 500 nM; on TRPML3 (fluorescent calcium assay), under 100 nM.

Regarding `Cc1cc(C#N)cc(-n2cc(-c3ccccc3F)c3c(N4CCN(C(=O)OC(C)(C)C)C[C@@H]4C)ncnc32)n1` [Compound 404, tert-butyl (S)-4-(7-(4-cyano-6-methylpyridin-2-yl)-5-(2-fluorophenyl)-7H-pyrrolo[2,3-d]pyrimidin-4-yl)-3-methylpiperazine-1-carboxylate], the concentration for a half-maximal effect (EC50) at TRPML1 (fluorescent calcium assay), on TRPML2 (fluorescent calcium assay) and on TRPML3 (fluorescent calcium assay) was under 100 nM in each case.

`C[C@H]1CN(C(=O)OCC(F)(F)F)CCN1c1ncnc2c1c(C1CC1)cn2-c1cc(C#N)ccn1` [Compound 368, 2,2,2-trifluoroethyl (S)-4-(7-(4-cyanopyridin-2-yl)-5-cyclopropyl-7H-pyrrolo[2,3-d]pyrimidin-4-yl)-3-methylpiperazine-1-carboxylate]: the figures for the EC50 on TRPML1 (fluorescent calcium assay), at TRPML2 (fluorescent calcium assay) and on TRPML3 (fluorescent calcium assay) were under 100 nM, 500 to 2000 nM and under 100 nM, respectively.

Turning to `CCOC(=O)N1C[C@H](C)N(c2ncnc3c2c(-c2ccccc2F)cn3-c2cccnc2)C[C@H]1C` [Compound 143, ethyl (2R,5S)-4-(5-(2-fluorophenyl)-7-(pyridin-3-yl)-7H-pyrrolo[2,3-d]pyrimidin-4-yl)-2,5-dimethylpiperazine-1-carboxylate], the EC50 was 100 to 500 nM on TRPML1 (fluorescent calcium assay), over 2000 nM on TRPML2 (fluorescent calcium assay) and 500 to 2000 nM at TRPML3 (fluorescent calcium assay).

On to `Cc1nccnc1-c1cn(-c2cc(F)c(F)c(F)c2)c2ncnc(N3CCN(C(=O)OC(C)(C)C)C[C@@H]3C)c12` [Compound 305, tert-butyl (S)-3-methyl-4-(5-(3-methylpyrazin-2-yl)-7-(3,4,5-trifluorophenyl)-7H-pyrrolo[2,3-d]pyrimidin-4-yl)piperazine-1-carboxylate], for which the results for the EC50 at TRPML1 (fluorescent calcium assay), on TRPML2 (fluorescent calcium assay) and at TRPML3 (fluorescent calcium assay) were 500 to 2000 nM, over 2000 nM and 100 to 500 nM, respectively.

`CC(C)(CF)OC(=O)N1CCN(c2ncnc3c2c(-c2ccccc2F)cn3-c2cncnc2)CC1` [Compound 173, 1-fluoro-2-methylpropan-2-yl 4-(5-(2-fluorophenyl)-7-(pyrimidin-5-yl)-7H-pyrrolo[2,3-d]pyrimidin-4-yl)piperazine-1-carboxylate]: the EC50 on TRPML1 (fluorescent calcium assay) was 500 to 2000 nM; on TRPML2 (fluorescent calcium assay), over 2000 nM; at TRPML3 (fluorescent calcium assay) it was 500 to 2000 nM.

`C[C@H]1CN(C(=O)OC(C)(C)C)CCN1c1ncnc2c1c(N1CCCC1)cn2-c1cccc(OC(F)(F)F)c1` [Compound 331, tert-butyl (S)-3-methyl-4-(5-(pyrrolidin-1-yl)-7-(3-(trifluoromethoxy)phenyl)-7H-pyrrolo[2,3-d]pyrimidin-4-yl)piperazine-1-carboxylate]: the EC50 on TRPML1 (fluorescent calcium assay), at TRPML2 (fluorescent calcium assay) and at TRPML3 (fluorescent calcium assay) was under 100 nM each time.

As to `C[C@@H]1CN(c2ncnc3c2c(OC(F)(F)F)cn3-c2cc(C#N)ccn2)[C@@H](C)CN1C(=O)OC(C)(C)C` [Compound 524, tert-butyl (2R,5S)-4-(7-(4-cyanopyridin-2-yl)-5-(trifluoromethoxy)-7H-pyrrolo[2,3-d]pyrimidin-4-yl)-2,5-dimethylpiperazine-1-carboxylate], the EC50 on TRPML1, at TRPML2 and at TRPML3 was under 100 nM each time.

For `C[C@H]1CN(C(=O)OC(C)(C)C)CCN1c1ncnc2c1c(C1COC1)cn2-c1cccc(F)c1` [Compound 474, tert-butyl (S)-4-(7-(3-fluorophenyl)-5-(oxetan-3-yl)-7H-pyrrolo[2,3-d]pyrimidin-4-yl)-3-methylpiperazine-1-carboxylate], the EC50 on TRPML1 (fluorescent calcium assay), on TRPML2 (fluorescent calcium assay) and on TRPML3 (fluorescent calcium assay) was over 2000 nM each time.

Regarding `C[C@H]1CN(C(=O)OC(C)(C)C)CCN1c1ncnc2c1c(C1(C)CC1)cn2-c1cc(C#N)ccn1` [Compound 411, tert-butyl (S)-4-(7-(4-cyanopyridin-2-yl)-5-(1-methylcyclopropyl)-7H-pyrrolo[2,3-d]pyrimidin-4-yl)-3-methylpiperazine-1-carboxylate], the EC50 on TRPML1 (fluorescent calcium assay), on TRPML2 (fluorescent calcium assay) and at TRPML3 (fluorescent calcium assay) was under 100 nM in each case.

Turning to `C[C@@H]1CN(c2ncnc3c2c(C2CC2)cn3-c2cc(F)cc(F)c2)[C@@H](C)CN1C(=O)OC1(C)CC1` [Compound 655, 1-methylcyclopropyl (2R,5S)-4-(5-cyclopropyl-7-(3,5-difluorophenyl)-7H-pyrrolo[2,3-d]pyrimidin-4-yl)-2,5-dimethylpiperazine-1-carboxylate], the EC50 at TRPML1 is under 100 nM; at TRPML2, under 100 nM; on TRPML3, 100 to 500 nM.

As for `COc1cncc(-n2cc(C3CC3)c3c(N4CCN(C(=O)OC(C)(C)C)CC4)ncnc32)c1` [Compound 104, tert-butyl 4-(5-cyclopropyl-7-(5-methoxypyridin-3-yl)-7H-pyrrolo[2,3-d]pyrimidin-4-yl)piperazine-1-carboxylate], the concentration for a half-maximal effect (EC50) on TRPML1 (fluorescent calcium assay) was 500 to 2000 nM; on TRPML2 (fluorescent calcium assay), over 2000 nM; on TRPML3 (fluorescent calcium assay) it was 100 to 500 nM.
